Measured values from patent US12187662B2, “FOXM1 inhibitor compositions and methods of using the same” (The Board of Trustees of the University of Illinois, priority 2018, dated 2025).
pIC50: −log10 of the molar value. “Also recorded” adds a separate entry of the source. Where two headings read alike, the source gives them in different places.

Experiments:
MDA-MB-231 cells = assay: Cell proliferation assay (WST-1), MDA-MB-231; assay type: cell-based, human
Method: (§1) All cells were tested for mycoplasma using Real-Time PCR Mycoplasma Detection Kit (Akron Biotech, Boca Raton, FL).
(§2) All assays were performed in triplicate.

MCF7 cells = assay: Cell proliferation assay (WST-1), MCF7; assay type: cell-based, human
Method: as §1, §2

[1] = Pharmacokinetic studies in mice after single s.c. or oral dose; conditions: for half-life / AUC(0-t): female, CD-1, mouse, plasma
DT22 cells = assay: Cell proliferation assay (WST-1), DT22; assay type: cell-based, human
Method: as §1, §2

breast cancer cell lines = assay: Proliferation of breast cancer cell lines (panel, line not specified); assay type: cell-based, human; conditions: cell line not specified or several lines
Method: as §1, §2

[2] = system: FOXM1 target genes in MCF7 cells; assay: FOXM1 target gene expression by qRT-PCR, MCF7; assay type: cell-based, human; conditions: MCF7, 24 h, at IC50 concentration
Method: (§3) RNA was extracted from cells and expression of different genes was monitored by qRT-PCR. Assays were run in triplicate. Values are mean±SEM. *, p<0.05; **, p<0.01; ***, p<0.001. RNA isolation and real-time PCR Total RNA was isolated using TRIzol (Invitrogen) and reverse transcribed using […] reverse transcriptase (New England BioLabs). Real-time PCR was performed using SYBRgreen PCR Master Mix (Roche) as described (Bergamaschi et al., Breast Cancer Res., 2014, 16:436). Relative mRNA levels of genes were normalized to the housekeeping gene 36B4, and fold change calculated relative to the vehicle treated samples. Results are the average±SD from at least two independent experiments carried out in triplicate. Primer sequences for the genes studied were obtained from the Harvard Primer Bank. Sequences are available on their website.

[3] = system: DT22 triple negative human breast tumor xenografts; assay: DT22 triple negative breast tumor xenografts in NSG mice; assay type: in vivo, mouse
Method: In vivo breast cancer xenograft studies For examination of the growth of triple-negative DT22 breast tumors, intact female NOD/SCID-gamma (NSG) mice were used. DT-22 cells (1×10^6 cells/mouse) were injected s.c. into the right axial mammary gland. Mice received s.c. injection or oral gavage daily or every second or third day, as indicated, with vehicle or FOXM1 inhibitor compound, and tumor growth was monitored over time.

[4] = system: FOXM1 target genes in DT22 cells; assay: FOXM1 target gene expression by qRT-PCR, DT22; assay type: cell-based, human; conditions: DT22, 24 h, at IC50 concentration
Text: as §3, with “Real-time PCR was performed using SYBRgreen PCR Master Mix (Roche) as described (Bergamaschi et al., Breast Cancer Res., 2014, 16:436).” left out

[5] = inhibition of cell proliferation, read-out: IC50 MCF7
[6] = sc, 40 mg/kg, PK s.c. AUC0-48, mice, 40 mg/kg s.c.
[7] = Homo sapiens, DT-22, inhibition of cell proliferation
[8] = Homo sapiens, MCF7, inhibition of cell proliferation, read-out: IC50 MCF7
[9] = Homo sapiens, MDA-MB-231, inhibition of cell proliferation, read-out: IC50 MDA-MB-231
[10] = Homo sapiens, MDA-MB-231, read-out: IC50 MDA-MB-231
[11] = sc, 60 mg/kg, PK s.c. AUC0-48, mice, 60 mg/kg s.c.
[12] = Homo sapiens, MCF7, read-out: IC50 MCF7

Q: With “6-(4-((Z)-((5S,7S)-adamantan-2-ylidene)(4-chlorophenyl)methyl)phenoxy)-N,N-diethylhexan-1-amine [NB-54]” as the compound, how does the pIC50 (MDA-MB-231 cells; inhibition of cell proliferation, read-out: IC50 MDA-MB-231) read?
A: 5.40

Q: What about the pIC50 (MCF7 cells; [5]) of the same compound?
A: 5.40

Q: Which half-life ([1]; po, 40 mg/kg) does the source give for `CCN(CC)CCCCCCOc1ccc(C(=C2C3CC4CC(C3)CC2C4)c2ccc(O)cc2)cc1` [NB-41, 4-((E)-((5R,7R)-adamantan-2-ylidene)(4-((6-(diethylamino)hexyl)oxy)phenyl)methyl)phenol] here?
A: 15.1 h

Q: What about the AUC(0-t) ([1]; po, 40 mg/kg, PK p.o. AUC0-48, mice, 40 mg/kg p.o.) of the same compound?
A: 5.6 µM·h

Q: What about the half-life ([1]; sc, 40 mg/kg) of the same compound?
A: 22.5 h

Q: And the AUC(0-t) [1, 6]?
A: 13.3 µM·h

Q: What about the pIC50 (DT22 cells; [7]) of the same compound?
A: 5.70 to 5.82

Q: And the pIC50 (DT22 cells; inhibition of cell proliferation, read-out: IC50 DT-22)?
A: 5.70

Q: What about the pIC50 (MCF7 cells; [8]) of the same compound?
A: 5.70 to 5.82

Q: And the pIC50 (MCF7 cells; [5])?
A: 5.82

Q: With `CCN(CC)CCOCCOCCOc1ccc(C(=C2C3CC4CC(C3)CC2C4)c2ccc(OCCOCCOCCN(CC)CC)cc2)cc1` [NB-53, 2,2′-(((((((((5r,7r)-adamantan-2-ylidene)methylene)bis(4,1-phenylene))bis(oxy))bis(ethane-2,1-diyl))bis(oxy))bis(ethane-2,1-diyl))bis(oxy))bis(N,N-diethylethan-1-amine)] as the compound, how does the pIC50 (MDA-MB-231 cells; [9]) read?
A: > 5.30

Q: And the pIC50 (MCF7 cells; [8])?
A: 5.46

Q: What does the source list for `CN1CCN(CCCCCCOc2ccc(C(=C3C4CC5CC(C4)CC3C5)c3ccc(OCCCCCCN4CCN(C)CC4)cc3)cc2)CC1` [NB-66, 4,4′-((((((5r,7r)-adamantan-2-ylidene)methylene)bis(4,1-phenylene))bis(oxy))bis(hexane-6,1-diyl))bis(1-methylpiperazine)]?
A: IC50 for inhibition of proliferation of breast cancer cell lines (breast cancer cell lines): submicromolar; PK p.o. AUC0-48 ([1]; mice, 60 mg/kg p.o.): too low to measure; PK s.c. AUC0-48 ([1]; mice, 60 mg/kg s.c.): 6.1 µM·h; PK s.c. t1/2 ([1]; mice, 60 mg/kg s.c.): 45.6 h; pIC50 (MCF7 cells; [8]): 6.10

Q: With `c1cc(C(c2ccc(OCCCCCCN3CCCCC3)cc2)=C2[C@H]3C[C@@H]4C[C@@H](C[C@H]2C4)C3)ccc1OCCCCCCN1CCCCC1` [NB-70, 1,1′-((((((5r,7r)-Adamantan-2-ylidene)methylene)bis(4,1-phenylene))bis(oxy))bis(hexane-6,1-diyl))dipiperidine] as the compound, how does the pIC50 (MDA-MB-231 cells; [10]) read?
A: 6.05

Q: And the half-life ([1]; po, 60 mg/kg)?
A: 90.9 h

Q: What about the AUC(0-t) ([1]; po, 60 mg/kg, PK p.o. AUC0-48, mice, 60 mg/kg p.o.) of the same compound?
A: 6 µM·h

Q: What about the AUC(0-t) [1, 11] of the same compound?
A: 10.2 µM·h

Q: And the pIC50 (MCF7 cells; [12])?
A: 6.15

Q: With `C[N+]1(CCCCCCOc2ccc(C(c3ccc(OCCCCCC[N+]4(C)CCCCC4)cc3)=C3C4C[C@H]5C[C@@H](C4)C[C@H]3C5)cc2)CCCCC1` [NB-71, 1,1′-((((((5r,7r)-adamantan-2-ylidene)methylene)bis(4,1-phenylene))bis(oxy))bis(hexane-6,1-diyl))bis(1-methylpiperidin-1-ium) diodide] as the compound, how does the pIC50 (MDA-MB-231 cells; [10]) read?
A: 6.30

Q: What about the half-life ([1]; sc) of the same compound?
A: 25 to 40 h

Q: And the half-life ([1]; sc, 60 mg/kg)?
A: 119 h

Q: What about the AUC(0-t) [1, 11] of the same compound?
A: 364 µM·h

Q: What about the “Blood levels after oral administration” value ([1]; mice, oral, doses of FIGS. 6A-6B) of the same compound?
A: very low levels

Q: And the “Blood levels after s.c. injection” value ([1]; mice, s.c., doses of FIGS. 6A-6B)?
A: very high blood levels

Q: What about the pIC50 (DT22 cells; [7]) of the same compound?
A: 6.10

Q: What about the pIC50 (MCF7 cells; [12]) of the same compound?
A: 5.96

Q: With `c1cc(C(=C2C3CC4CC(C3)CC2C4)c2ccc(OCCCCCCCCN3CCCCCC3)cc2)ccc1OCCCCCCCCN1CCCCCC1` [NB-80, 1,1′-((((((5r,7r)-adamantan-2-ylidene)methylene)bis(4,1-phenylene))bis(oxy))bis(octane-8,1-diyl))bis(azepane)] as the compound, how does the pIC50 (DT22 cells; [7]) read?
A: 5.47

Q: And the pIC50 (MCF7 cells; [8])?
A: 5.57

Q: Which “Outcome of animals in PK study” value ([1]; mice, 40 mg/kg s.c adm.) does the source give for `C[N+]1(CCCCCCCCOc2ccc(C(=C3C4CC5CC(C4)CC3C5)c3ccc(OCCCCCCCC[N+]4(C)CCCCCC4)cc3)cc2)CCCCCC1.[I-].[I-]` [NB-81, 1,1′-((((((5r,7r)-adamantan-2-ylidene)methylene)bis(4,1-phenylene))bis(oxy))bis(octane-8,1-diyl))bis(1-methylazepan-1-ium) diiodide] here?
A: Died at 40 mg/kg s.c adm.

Q: What about the pIC50 (DT22 cells; [7]) of the same compound?
A: 5.80

Q: What about the pIC50 (MCF7 cells; [8]) of the same compound?
A: 6.22

Q: With `C[N+]1(CCCCOc2ccc(C(=C3C4CC5CC(C4)CC3C5)c3ccc(OCCCC[N+]4(C)CCCCC4)cc3)cc2)CCCCC1` [NB-86, 1-(4-(4-((E)-((5R,7R)-adamantan-2-ylidene)(4-(4-(1-metheyliumylpiperidin-1-ium-1-yl)butoxy)phenyl)methyl)phenoxy)butyl)-1-methylpiperidin-1-ium diiodide] as the compound, how does the pIC50 (MDA-MB-231 cells; [9]) read?
A: 5.96

Q: What about the pIC50 (DT22 cells; [7]) of the same compound?
A: 5.72

Q: What about the pIC50 (MCF7 cells; [8]) of the same compound?
A: 5.85

Q: With `C[N+]1(CCCCOc2ccc(C(=C3C4CC5CC(C4)CC3C5)c3ccc(OCCCC[N+]4(C)CCCCCC4)cc3)cc2)CCCCCC1` [NB-87, 1,1′-((((((5r,7r)-adamantan-2-ylidene)methylene)bis(4,1-phenylene))bis(oxy))bis(butane-4,1-diyl))bis(1-methylazepan-1-ium) diiodide] as the compound, how does the pIC50 (MDA-MB-231 cells; [9]) read?
A: 6.05

Q: What about the pIC50 (DT22 cells; [7]) of the same compound?
A: 5.82

Q: And the pIC50 (MCF7 cells; [8])?
A: 5.77

Q: With `C[N+]1(CCCCCOc2ccc(C(=C3C4CC5CC(C4)CC3C5)c3ccc(OCCCCC[N+]4(C)CCCCC4)cc3)cc2)CCCCC1` [NB-88, 1,1′-((((((5r,7r)-adamantan-2-ylidene)methylene)bis(4,1-phenylene))bis(oxy))bis(pentane-5,1-diyl))bis(1-methylpiperidin-1-ium) diiodide] as the compound, how does the pIC50 (MDA-MB-231 cells; [9]) read?
A: 6.15

Q: And the pIC50 (DT22 cells; [7])?
A: 5.92

Q: And the pIC50 (MCF7 cells; [8])?
A: 5.77

Q: Which results are given for `C[N+]1(CCCCCOc2ccc(C(=C3C4CC5CC(C4)CC3C5)c3ccc(OCCCCC[N+]4(C)CCCCCC4)cc3)cc2)CCCCCC1` [NB-89, 1,1′-((((((5r,7r)-adamantan-2-ylidene)methylene)bis(4,1-phenylene))bis(oxy))bis(pentane-5,1-diyl))bis(1-methylazepan-1-ium) diiodide]?
A: pIC50 (MDA-MB-231 cells; [9]): 6.30; pIC50 (DT22 cells; [7]): 5.96; pIC50 (MCF7 cells; [8]): 6.22; pIC50 (MCF7 cells; [5]): 6.15

Q: For `CC[N+](C)(CC)CCCCCCOc1ccc(C(c2ccc(OCCCCCC[N+](C)(CC)CC)cc2)=C2C3C[C@H]4C[C@@H](C3)C[C@H]2C4)cc1` [NB-115, 6-(4-(((5r,7r)-adamantan-2-ylidene)(4-((6-(diethyl(methyl)-λ^4-azaneyl)hexyl)oxy)phenyl)methyl)phenoxy)-N,N-diethyl-N-methylhexan-1-aminium diiodide], which “Expression of ATF3 (gene suppressed by FOXM1)” value [2] is on record?
A: increased

Q: What about the “Expression of FOXM1 stimulated target genes (FOXM1C, AURKB, CCNB1, PLK1)” value [2] of the same compound?
A: significantly reduced

Q: And the “Tumor growth in vivo, low doses” value ([3]; 5 or 10 mg/kg s.c. every second or third day)?
A: greatly suppress tumor growth

Q: And the “Growth of DT22-Luc xenograft tumors, low doses” value ([3]; NB-115 s.c. daily 2 or 6 mg/kg, NB-63 s.c. daily 20 mg/kg until day 20, then 10 mg/kg every other day)?
A: suppress the growth; also recorded: effective in suppressing the growth

Q: What about the Animal body weight ([3]; same low-dose regimens as tumor study (FIG. 14B)) of the same compound?
A: do not affect; also recorded: little impact

Q: What about the half-life ([1]; sc) of the same compound?
A: 25 to 40 h

Q: What about the AUC(0-t) [1, 6] of the same compound?
A: 746 µM·h

Q: What about the “Expression of ATF3 (gene suppressed by FOXM1)” value [4] of the same compound?
A: increased

Q: And the “Expression of FOXM1 stimulated target genes (FOXM1C, AURKB, CCNB1, PLK1)” value [4]?
A: significantly reduced

Q: What about the pIC50 (MCF7 cells; [12]) of the same compound?
A: 5.96

Q: What does the source list for `CC[N+](C)(CCO)CCCCCCOc1ccc(C(=C2C3CC4CC(C3)CC2C4)c2ccc(OCCCCCC[N+](C)(CC)CCO)cc2)cc1` (stereo not drawn) [NB-134, 6,6′-(((((5r,7r)-adamantan-2-ylidene)methylene)bis(4,1-phenylene))bis(oxy))bis(N-ethyl-N-(2-hydroxyethyl)-N-methylhexan-1-aminium) diiodide]?
A: pIC50 (DT22 cells; [7]): 5.82; pIC50 (MCF7 cells; [8]): 5.96
